From US12502434B2, “Compound comprising EZH2 inhibitor and E3 ligase binder and pharmaceutical composition for preventing or treating EZH2-associated disease comprising same as active ingredient” (DAEGU-GYEONGBUK MEDICAL INNOVATION FOUNDATION, priority 2019, dated 2025)
Like-named read-outs stand apart in the source and are kept apart here.

What was measured:
[1] = target: T1, HiBiT-EZH2 in EZH2-HiBiT HEK293T cells (Homo sapiens, UniProt Q15910); experiment: EZH2 proteolytic activity using Nano-BiT assay system; assay type: cell-based; conditions: for Relative EZH2 degradation rate, 1 μM(%) Average: 72 hours, n = 3; for EZH2 proteolytic ability compared to comparative compounds 1, 2 and 3 (in words): 1 μM
T1 construct: endogenous in cells; host or cells: HEK293T (CRISPR/Cas9 HiBiT knock-in at the EZH2 locus)
Experimental: In order to evaluate the EZH2 proteolytic activity of the compound according to the present invention, the following experiment was performed. Specifically, the CRISPR/Cas9 technique was used to construct a stable cell line of HiBiT-EZH2. […] After harvesting the cells, the cell solution was prepared at a concentration of 1 cell/100 ul, and 100 ul of the cell solution was dispensed into each well of a 96-well plate and seeded so that a single cell could proliferate in each well. After proliferating the cells for 2-3 weeks, some of the proliferated cells from one cell were recovered and gDNA was extracted. To confirm that the HiBiT sequence was correctly inserted into the EZH2 target, deep sequencing was performed to select the cells containing the HiBiT sequence, and after further verification through Sanger sequencing, the final EZH2-HiBiT HEK293T cells were obtained. 1×10^3 of the obtained cells were placed in a 96-well white plate, and after 18 hours of stabilization, each well was treated with the example compound at a final concentration of 1 μM. The control group was treated with the same concentration of DMSO which was used as the solvent of the example compound. After 72 hours of the treatment, an assay was performed using Nano-Glo HiBiT Lytic Detection System ([…], Promega). After removing the medium, 100 μL of lysis buffer, 1 μL of LgBiT protein and 1 μL of substrate buffer were added to each well. Then, the plate was reacted in a shaking incubator at 700 rpm for 2 minutes, and then the mixture of each well was pipetted to mix well. Thereafter, the plate was reacted at room temperature for 10 minutes while light was blocked, and luminescence was measured.

[2] = target: T2, EZH2 protein in LS174T cells (Homo sapiens, UniProt Q15910); experiment: Proteolytic effect in colorectal cancer cells (Western blotting); assay type: cell-based
T2 construct: endogenous in cells; host or cells: LS174T
Experimental: After 72 hours of the treatment, the cells were collected and lysed using RIPA buffer (50 mM Tris, pH 7.5, 150 mM NaCl, 1% Triton X-100, 0.1% SDS, […], 0.5% deoxycholate, and protease inhibitor cocktail), followed by sonication (30 sec on/30 sec off, 5 cycles) to prepare a cell lysate.

[3] = EZH2 protein, LS174T cells, 1 μM, 72 hours
[4] = EZH2 protein, LS174T cells, 1 uM, 72 hours, Western blotting

T2 sequence (Q15910 whole entry): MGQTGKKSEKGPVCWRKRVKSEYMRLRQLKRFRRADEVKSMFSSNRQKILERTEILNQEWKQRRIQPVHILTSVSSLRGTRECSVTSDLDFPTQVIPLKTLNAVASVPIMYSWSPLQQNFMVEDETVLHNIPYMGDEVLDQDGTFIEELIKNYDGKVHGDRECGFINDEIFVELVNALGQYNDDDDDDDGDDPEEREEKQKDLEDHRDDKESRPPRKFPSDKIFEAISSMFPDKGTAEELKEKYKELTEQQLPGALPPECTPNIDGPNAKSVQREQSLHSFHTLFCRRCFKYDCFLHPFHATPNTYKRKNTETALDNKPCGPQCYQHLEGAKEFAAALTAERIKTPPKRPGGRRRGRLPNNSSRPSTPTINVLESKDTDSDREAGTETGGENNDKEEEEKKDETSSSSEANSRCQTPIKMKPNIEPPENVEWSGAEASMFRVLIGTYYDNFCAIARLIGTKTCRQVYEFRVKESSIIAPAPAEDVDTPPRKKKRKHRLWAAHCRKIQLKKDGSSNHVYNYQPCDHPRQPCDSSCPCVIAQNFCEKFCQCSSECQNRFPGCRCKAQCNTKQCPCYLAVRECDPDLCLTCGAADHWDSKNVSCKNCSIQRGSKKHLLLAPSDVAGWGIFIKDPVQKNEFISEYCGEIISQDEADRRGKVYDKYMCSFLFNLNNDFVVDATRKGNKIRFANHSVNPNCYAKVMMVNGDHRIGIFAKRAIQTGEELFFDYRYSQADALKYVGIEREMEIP
T2 sequence (O75530 whole entry partner): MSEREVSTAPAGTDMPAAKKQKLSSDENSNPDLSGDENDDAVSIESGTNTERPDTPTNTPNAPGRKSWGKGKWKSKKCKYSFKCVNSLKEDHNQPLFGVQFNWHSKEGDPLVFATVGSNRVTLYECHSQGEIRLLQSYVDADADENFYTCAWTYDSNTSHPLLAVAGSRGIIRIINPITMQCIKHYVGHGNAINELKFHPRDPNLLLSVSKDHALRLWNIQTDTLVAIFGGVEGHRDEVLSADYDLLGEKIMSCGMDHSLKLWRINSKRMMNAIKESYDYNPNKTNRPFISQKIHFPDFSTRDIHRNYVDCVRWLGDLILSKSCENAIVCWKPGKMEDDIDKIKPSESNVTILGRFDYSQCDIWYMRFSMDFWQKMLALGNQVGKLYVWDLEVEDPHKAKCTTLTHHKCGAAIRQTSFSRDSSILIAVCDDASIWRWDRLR
T2 sequence (Q15022 whole entry partner): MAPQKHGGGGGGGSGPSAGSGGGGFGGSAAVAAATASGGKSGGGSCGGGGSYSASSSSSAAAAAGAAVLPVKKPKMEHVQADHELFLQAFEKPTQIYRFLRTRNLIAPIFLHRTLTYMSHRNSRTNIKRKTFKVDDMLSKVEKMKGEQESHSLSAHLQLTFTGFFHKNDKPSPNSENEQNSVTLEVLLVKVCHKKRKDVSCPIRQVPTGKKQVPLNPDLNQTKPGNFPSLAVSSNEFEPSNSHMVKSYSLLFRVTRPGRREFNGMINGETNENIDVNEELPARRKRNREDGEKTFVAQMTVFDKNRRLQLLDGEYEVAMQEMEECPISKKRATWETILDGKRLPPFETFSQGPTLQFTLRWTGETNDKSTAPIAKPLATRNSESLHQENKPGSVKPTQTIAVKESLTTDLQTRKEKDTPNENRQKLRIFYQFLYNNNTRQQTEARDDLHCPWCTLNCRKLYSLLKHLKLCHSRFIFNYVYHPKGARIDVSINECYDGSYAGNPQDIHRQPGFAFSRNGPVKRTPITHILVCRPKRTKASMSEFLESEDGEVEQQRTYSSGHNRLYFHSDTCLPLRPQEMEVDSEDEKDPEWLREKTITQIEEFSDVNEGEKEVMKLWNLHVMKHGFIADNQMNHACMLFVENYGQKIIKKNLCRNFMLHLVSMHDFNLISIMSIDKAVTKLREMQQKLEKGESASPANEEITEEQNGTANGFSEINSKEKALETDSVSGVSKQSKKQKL
T1 sequence (Q15910 whole entry): as the sequence (Q15910 whole entry) above
T1 sequence (O75530 whole entry partner): as the sequence (O75530 whole entry partner) above
T1 sequence (Q15022 whole entry partner): as the sequence (Q15022 whole entry partner) above

SMILES	Relative EZH2 degradation rate, 1 μM(%) Average [1]	Grade (percent value of the protein degradation when treated with 1 μM) [2, 3]	%, degradation at 1 uM [2, 4]	effect of degrading EZH2 protein when treated to colorectal cancer cells (in words) ([2]; LS174T cells)	EZH2 proteolytic ability compared to comparative compounds 1, 2 and 3 (in words) [1]	EZH2 proteolytic effect by Western blotting (figure, in words) ([2]; FIGS. 1 to 5)	%, degradation at 1 uM [2]	EZH2 proteolytic effect by Western blotting (figure, in words) [2]	Grade (percent value of the protein degradation when treated with 1 μM) [2]
CCN(c1cc(-c2ccc(CN3CCN(CCNC(=O)CCOCCNc4cccc5c4C(=O)N(C4CCC(=O)NC4=O)C5=O)CC3)cc2)cc(C(=O)NCc2c(C)cc(C)[nH]c2=O)c1C)C1CCOCC1 (centres unmarked) [compound 3, reference compound]	19.2%	–	–	–	–	–	–	–	–
CCN(c1cc(-c2ccc(OCC(=O)NCCCCCCNc3cccc4c3C(=O)N(C3CCC(=O)NC3=O)C4=O)cc2)cc(C(=O)NCc2c(C)cc(C)[nH]c2=O)c1C)C1CCOCC1 (centres unmarked) [compound 1, reference compound]	27.8%	–	–	–	–	–	–	–	–
CCN(c1cc(-c2ccc(CN3CCN(CC(=O)NCCCCCOCCCOCC(=O)N[C@H](C(=O)N4C[C@H](O)C[C@H]4C(=O)NCc4ccc(-c5scnc5C)cc4)C(C)(C)C)CC3)cc2)cc(C(=O)NCc2c(C)cc(C)[nH]c2=O)c1C)C1CCOCC1 [Example 37, (2S,4R)-1-((S)-2-(tert-butyl)-18-(4-((3′-(((4,6-dimethyl-2-oxo-1,2-dihydropyridine-3-yl)methyl)carbamoyl)-5′-(ethyl(tetrahydro-2H-pyran-4-yl)amino)-4′-methyl-[1,1′-biphenyl]-4-yl)methyl)piperazine-1-yl)-4,17-dioxo-6,10-dioxa-3,16-diazaoctadecanoyl)-4-hydroxy-N-(4-(4-methylthiazole-5-yl)benzyl)pyrrolidine-2-carboxamide]	62.9%	A (>75%)	92.73%	excellent effects	significantly better EZH2 proteolytic ability	–	–	–	–
CCN(c1cc(-c2ccc(CN3CCN(CC(=O)NCCCCCCOCC(=O)N[C@H](C(=O)N4C[C@H](O)C[C@H]4C(=O)NCc4ccc(-c5scnc5C)cc4)C(C)(C)C)CC3)cc2)cc(C(=O)NCc2c(C)cc(C)[nH]c2=O)c1C)C1CCOCC1 [Example 46, (2S,4R)-1-((S)-2-(2-((6-(2-(4-((3′-(((4,6-dimethyl-2-oxo-1,2-dihydropyridine-3-yl)methyl)carbamoyl)-5′-(ethyl(tetrahydro-2H-pyran-4-yl)amino)-4′-methyl-[1,1′-biphenyl]-4-yl)methyl)piperazine-1-yl)acetamido)hexyl)oxy)acetamido)-3,3-dimethylbutanoyl)-4-hydroxy-N-(4-(4-methylthiazole-5-yl)benzyl)pyrrolidine-2-carboxamide]	65.8%	–	–	–	significantly better EZH2 proteolytic ability	–	83.76%	confirming the EZH2 proteolytic effect	A (key: A: >75%; B: 50-75%; C: 25-50%; D: <25%)
CCN(c1cc(-c2ccc(CN3CCN(CC(=O)NCCCCCCCCCOCC(=O)N[C@H](C(=O)N4C[C@H](O)C[C@H]4C(=O)NCc4ccc(-c5scnc5C)cc4)C(C)(C)C)CC3)cc2)cc(C(=O)NCc2c(C)cc(C)[nH]c2=O)c1C)C1CCOCC1 [Example 49, (2S,4R)-1-((S)-2-(2-((9-(2-(4-((3′-(((4,6-dimethyl-2-oxo-1,2-dihydropyridine-3-yl)methyl)carbamoyl)-5′-(ethyl(tetrahydro-2H-pyran-4-yl)amino)-4′-methyl-[1,1′-biphenyl]-4-yl)methyl)piperazine-1-yl)acetamido)nonyl)oxy)acetamido)-3,3-dimethylbutanoyl)-4-hydroxy-N-(4-(4-methylthiazole-5-yl)benzyl)pyrrolidine-2-carboxamide]	77.8%	A (>75%)	96.49%	excellent effects	significantly better EZH2 proteolytic ability	confirming the EZH2 proteolytic effect	–	–	–
CCN(c1cc(-c2ccc(CN3CCN(C(=O)c4cn(CCC(=O)N[C@H](C(=O)N5C[C@H](O)C[C@H]5C(=O)NCc5ccc(-c6scnc6C)cc5)C(C)(C)C)nn4)CC3)cc2)cc(C(=O)NCc2c(C)cc(C)[nH]c2=O)c1C)C1CCOCC1 [Example 47, (2S,4R)-1-((S)-2-(3-(4-(4-((3′-(((4,6-dimethyl-2-oxo-1,2-dihydropyridine-3-yl)methyl)carbamoyl)-5′-(ethyl(tetrahydro-2H-pyran-4-yl)amino)-4′-methyl-[1,1′-biphenyl]-4-yl)methyl)piperazine-1-carbonyl)-1H-1,2,3-triazole-1-yl)propanamido)-3,3-dimethylbutanoyl)-4-hydroxy-N-(4-(4-methylthiazole-5-yl)benzyl)pyrrolidine-2-carboxamide]	–	D (<25%)	0%	–	–	–	–	–	–

The next lines start with results.

Relative EZH2 degradation rate, 1 μM(%) Average [1]	Grade (percent value of the protein degradation when treated with 1 μM) [2, 3]	%, degradation at 1 uM [2, 4]	effect of degrading EZH2 protein when treated to colorectal cancer cells (in words) ([2]; LS174T cells)	SMILES	EZH2 proteolytic ability compared to comparative compounds 1, 2 and 3 (in words) [1]	EZH2 proteolytic effect by Western blotting (figure, in words) ([2]; FIGS. 1 to 5)	%, degradation at 1 uM [2]	EZH2 proteolytic effect by Western blotting (figure, in words) [2]	Grade (percent value of the protein degradation when treated with 1 μM) [2]
16.2%	–	–	–	CCN(c1cc(-c2ccc(N3CCN(CC(=O)NCCCCCCNc4cccc5c4C(=O)N(C4CCC(=O)NC4=O)C5=O)CC3)cc2)cc(C(=O)NCc2c(C)cc(C)[nH]c2=O)c1C)C1CCOCC1 (centres unmarked) [compound 2, reference compound]	–	–	–	–	–
50.7%	A (>75%)	95.65%	excellent effects	CCN(c1cc(-c2ccc(CN3CCN(CC(=O)N4CCC5(CCN(CCNc6cccc7c6C(=O)N(C6CCC(=O)NC6=O)C7=O)CC5)CC4)CC3)cc2)cc(C(=O)NCc2c(C)cc(C)[nH]c2=O)c1C)C1CCOCC1 (centres unmarked) [Example 30, N-((4,6-dimethyl-2-oxo-1,2-dihydropyridine-3-yl)methyl)-4′-((4-(2-(9-(2-((2-(2,6-dioxopiperidine-3-yl)-1,3-dioxoisoindoline-4-yl)amino)ethyl)-3,9-diazaspiro[5.5]undecane-3-yl)-2-oxoethyl)piperazine-1-yl)methyl)-5-(ethyl(tetrahydro-2H-pyran-4-yl)amino)-4-methyl-[1,1′-biphenyl]-3-carboxamide]	significantly better EZH2 proteolytic ability	confirming the EZH2 proteolytic effect	–	–	–
–	D (<25%)	0%	–	CCN(c1cc(-c2ccc(CN3CCN(CC(=O)NCCOCCOCCOCCC(=O)NCCNc4cccc5c4C(=O)N(C4CCC(=O)NC4=O)C5=O)CC3)cc2)cc(C(=O)NCc2c(C)cc(C)[nH]c2=O)c1C)C1CCOCC1 (centres unmarked) [Example 4, N-((4,6-dimethyl-2-oxo-1,2-dihydropyridine-3-yl)methyl)-4′-((4-(18-((2-(2,6-dioxopiperidine-3-yl)-1,3-dioxoisoindoline-4-yl)amino)-2,15-dioxo-6,9,12-trioxa-3,16-diazaoctadecyl)piperazine-1-yl)methyl)-5-(ethyl(tetrahydro-2H-pyran-4-yl)amino)-4-methyl-[1,1′-biphenyl]-3-carboxamide]	–	–	–	–	–
